Test results as given in US10159675B2, “Cycling therapy using 3-(5-amino-2-methyl-4-oxo-4H-quinazolin-3-yl)-piperidine-2,6-dione” (Celgene Corporation, priority 2015, dated 2018).

How the values were obtained:
[1] = test system: Human CD34+ bone marrow cells; test: In vitro myeloid differentiation assay; assay type: cell-based; set-up: dose or concentration left out as unconfirmed; settings: after 14 days
Method: Human CD34+ bone marrow cells were seeded in stem cell factor, Fms-like tyrosine kinase 3 ligand (F1t3L) and granulocyte colony-stimulating factor (G-CSF), followed by 6 days with media plus G-CSF. Compound 1 […] was added continuously or on a 5-of-7-day (5/7 d) schedule. After 14 days, myeloid maturation stages were measured by CD34, CD33, and CD11b flow cytometry.

[2] = test system: Memory T cells; test: Clinical study: lymphocyte phenotyping by flow cytometry; assay type: in vivo, human; settings: cycle 1, day 22, peripheral blood, 5/7 d schedule
Method: (§1) Sample Analysis • Aiolos was measured by flow cytometry on samples of whole blood drawn at 0 hours (pre-dose) and at 1.5 and 5 hours post-dose on cycle 1, day 1 • Archival or screening formalin-fixed paraffin-embedded (FFPE) tissues were stained for MYC and BCL2 expression6 on a Bond-Max automated slide stainer (Leica Microsystems, Buffalo Grove, Ill.) • Pathology review was performed on a hematoxylin and eosin stained slides to identify the area of DLBCL • RNA extraction and NanoString nCounter Analysis System lymphoma subtyping test (Seattle, Wash.) were performed as reported previously7 on core needle and excisional biopsy samples • For lymphocyte phenotyping, whole blood was drawn pre-dose (baseline) and 1.5 hours post-dose on cycle 1 day 15, cycle 1 day 22, cycle 2 day 15, and cycle 2 day 22 • Memory T cells ([…]) were measured by flow cytometry.

[3] = test system: patients with relapsed or refractory DLBCL; test: Clinical study: dose-limiting toxicities, adverse events, dose modifications
Text: Adverse events (AEs) were graded by NCI CTCAE v4.0, and responses were investigator assessed using International Workshop criteria for NHL.

[4] = test system: patients with relapsed or refractory DLBCL; test: Clinical study: response (International Workshop criteria for NHL), by schedule and biomarker; assay type: in vivo, human
Method: as §1

[5] = AEs occurring in >20% of patients, 3 mg 28/28 d (n = 25)
[6] = AEs occurring in >20% of patients, 4 mg 5/7 d (n = 21)
[7] = Grade 3/4 AEs occurring in >1 patient, 3 mg 28/28 d (n = 25)
[8] = Grade 3/4 AEs occurring in >1 patient, 4 mg 5/7 d (n = 21)
[9] = 4 mg 5/7 d DLBCL-2 cohort (n=17)
[10] = 5 mg 5/7 d DLBCL-2 cohort (n=3)

Cc1nc2cccc(N)c2c(=O)n1C1CCC(=O)NC1=O (stereo not drawn) [Compound 1, 3-(5-amino-2-methyl-4-oxo-4H-quinazolin-3-yl)-piperidine-2,6-dione]
decreased mature neutrophils compared with vehicle ([1]; continuous exposure): 90%
decreased mature neutrophils ([1]; exposure for 5/7 d): 50%
median increase from baseline in cytotoxic memory T cells [2]: 266%
median increase from baseline in helper memory T cells [2]: 75%
Relative dose intensity (median) ([3]; 3 mg 28/28 d (daily continuously, n = 25)): 78.6%
DLTs (kind): febrile neutropenia ([3]; 3 mg qd): Grade 3 febrile
DLTs (kind): neutropenia ([3]; 3 mg qd): Grade 4
DLTs (kind): sepsis ([3]; 3 mg qd): Grade 4 sepsis
AE asthenia, patients ([3]; 4 mg 5/7 d): 29%
AE constipation, patients ([3]; 4 mg 5/7 d): 29%
AE neutropenia, patients ([3]; 4 mg 5/7 d): 52%
AE pyrexia, patients ([3]; 4 mg 5/7 d): 57%
DLTs (kind): neutropenia ([3]; 4 mg 5/7 d): Grade 4
serious treatment-related AE neck pain ([3]; 4 mg 5/7 d): 5%
serious treatment-related AE pneumonia ([3]; 4 mg 5/7 d): 5%
serious treatment-related AE pneumonitis ([3]; 4 mg 5/7 d): 5%
Relative dose intensity (median) ([3]; 4 mg 5/7 d (n = 21)): 97.5%
DLTs reported ([3]; 4 mg 5/7 d, DLBCL-2 expansion, 19 DLT-evaluable patients): No DLTs
dose-limiting toxicities during cycle 1 ([3]; 4 mg, 21/28 d cohort (n=3)): no dose-limiting toxicities
patients requiring subsequent dose reduction due to grade 4 neutropenia ([3]; 4 mg, 21/28 d cohort (n=3)): 3 patients
DLTs (kind): febrile neutropenia ([3]; 5 mg 5/7 d): Grade 3
DLTs (kind): pneumonitis ([3]; 5 mg 5/7 d): Grade 3
MTD ([3]; 5/7 d schedule): 4 mg
NTD ([3]; 5/7 d schedule): 5 mg
severity of neutropenia ([3]; 5/7 d schedule (FIG. 2)): mitigated
non-tolerated dose (NTD) ([3]; 21/28 d schedule): 4 mg
Anemia [3, 5]: 13 (52) n (%)
Appetite [3, 5]: 1 (4) n (%)
Arrhythmia [3, 5]: 0 n (%)
Asthenia [3, 5]: 14 (56) n (%)
Constipation [3, 5]: 4 (16) n (%)
Cough [3, 5]: 10 (40) n (%)
Decreased [3, 5]: 3 (12) n (%)
Diarrhea [3, 5]: 5 (20) n (%)
Dyspnea [3, 5]: 4 (16) n (%)
Nausea [3, 5]: 4(16) n (%)
Neutropenia [3, 5]: 19 (76) n (%)
Peripheral edema [3, 5]: 7 (28) n (%)
Pyrexia [3, 5]: 10 (40) n (%)
Thrombocytopenia [3, 5]: 9 (36) n (%)
Vomiting [3, 5]: 4 (16) n (%)
Anemia [3, 6]: 5 (24) n (%)
Appetite [3, 6]: 3 (14) n (%)
Arrhythmia [3, 6]: 2 (10) n (%)
Asthenia [3, 6]: 6 (29) n (%)
Constipation [3, 6]: 6 (29) n (%)
Cough [3, 6]: 2 (10) n (%)
Decreased [3, 6]: 3 (14) n (%)
Diarrhea [3, 6]: 3 (14) n (%)
Dyspnea [3, 6]: 5 (24) n (%)
Nausea [3, 6]: 5 (24) n (%)
Neutropenia [3, 6]: 11 (52) n (%)
Peripheral edema [3, 6]: 4 (19) n (%)
Pyrexia [3, 6]: 12 (57) n (%)
Thrombocytopenia [3, 6]: 5 (21) n (%)
Vomiting [3, 6]: 5 (24) n (%)
DLTs, n (%) ([3]; DLBCL-2, 4 mg 5/7 d, 19 DLT evaluable): 0 n (%)
DLTs, n (%) ([3]; DLBCL-2, 4 mg 21/28 d, 3 DLT evaluable): 0 n (%)
DLTs, n (%) ([3]; DLBCL-2, 5 mg 5/7 d, 5 DLT evaluable): 2 (40) n (%)
Anemia [3, 7]: 3 (12) n (%)
Appetite [3, 7]: 0 n (%)
Arrhythmia [3, 7]: 0 n (%)
Asthenia [3, 7]: 5 (20) n (%)
Constipation [3, 7]: 0 n (%)
Cough [3, 7]: 0 n (%)
Decreased [3, 7]: 0 n (%)
Diarrhea [3, 7]: 0 n (%)
Dyspnea [3, 7]: 0 n (%)
Nausea [3, 7]: 0 n (%)
Neutropenia [3, 7]: 16 (64) n (%)
Peripheral edema [3, 7]: 0 n (%)
Pyrexia [3, 7]: 0 n (%)
Thrombocytopenia [3, 7]: 3 (12) n (%)
Vomiting [3, 7]: 0 n (%)
Anemia [3, 8]: 0 n (%)
Appetite [3, 8]: 0 n (%)
Arrhythmia [3, 8]: 2 (7) n (%)
Asthenia [3, 8]: 0 n (%)
Constipation [3, 8]: 0 n (%)
Cough [3, 8]: 0 n (%)
Decreased [3, 8]: 0 n (%)
Diarrhea [3, 8]: 0 n (%)
Dyspnea [3, 8]: 0 n (%)
Nausea [3, 8]: 0 n (%)
Neutropenia [3, 8]: 8 (38) n (%)
Peripheral edema [3, 8]: 0 n (%)
Pyrexia [3, 8]: 0 n (%)
Thrombocytopenia [3, 8]: 0 n (%)
Vomiting [3, 8]: 0 n (%)
DLTs, n (%) ([3]; NHL-1, 3 mg qd, 18 DLT evaluable): 3 (17) n (%)
complete responses [CR] ([4]; 3 mg 28/28 d cohort (n=22)): 2
overall response rate (ORR) ([4]; 3 mg 28/28 d cohort (n=22)): 27%
partial responses [PR] ([4]; 3 mg 28/28 d cohort (n=22)): 4
CR [4, 9]: 2
ORR [4, 9]: 39%
PR [4, 9]: 5
CR [4, 10]: 1
ORR [4, 10]: 100%
PR [4, 10]: 2
PFS ([4]; Cell of Origin ABC): 99 days
PFS ([4]; Cell of Origin GCB): 100 days
ORR ([4]; Cell of Origin Non-ABC): 8/27 (30%)
PFS ([4]; Cell of Origin Non-ABC): 64 days
ORR ([4]; Cell of Origin Non-GCB): 6/18 (33%)
PFS ([4]; Cell of Origin Non-GCB): 74 days
PFS ([4]; Cell of Origin Unclassified): 51 days
PFS ([4]; MYC/BCL2 dual expressor Negative): 70 days
PFS ([4]; MYC/BCL2 dual expressor Positive): 100 days
